Here are results for six compounds from patent US8741951B2, “Non-steroidal compounds for androgen receptor modulation” (CNR—Consiglio Nazionale delle Ricerche, priority 2009, dated 2014).

Data set [1] concerns human hepatoblastoma cell line HepG2. Nature of the data set: Cytotoxic activity on HepG2 (hepato-toxicity). Type of data set: cell-based. The conditions noted are these: HepG2, up to highest concentration tested. How it is done: (§1) Sulforhodamine B (SRB) assay was used according to the method by Skehan et al. (JNCI, 1990). Briefly, cells were collected by trypsinization, counted and plated at a density of 5,000 cells/well in 96-well flat-bottomed microtiter plates (100 μl of cell suspension/well). In the chemosensitivity assay, experiments were run in octuplicate, and each experiment was repeated three times. The optical density (OD) of cells was determined at a wavelength of 490 nm by a colorimetric plate reader.
(§2) If ODtreated is above ODzero, treatment has induced a cytostatic effect, whereas if ODtreated is below ODzero, cell killing has occurred. The ODzero depicts the cell number at the moment of drug addition, the ODcontrol reflects the cell number in untreated wells and the ODtreated reflects the cell number in treated wells on the day of the assay.
FIG. 27-36 show the cytotoxic activity of the drugs on the human hepatoblastoma cell line HepG2. The authors evaluated in vitro the potential hepato-toxicity of some of the novel compounds on HepG2 cell line, a human hepatoblastoma cell line that retains the specialized function of normal hepatocytes [Knowles B B, Howe C C, Aden D P. Human hepatocellular carcinoma cell lines secretes the major plasma proteins and hepatitis B surface antigen. Science 1980, 209:497-499; Aden D P, Vogel A, Plortkin S, Damjanov I, Knowles B B. Controlled synthesis of HBS Ag in a differentiated human liver carcinoma-derived cell line. Nature, 1979, 282:615-616].

Data set [2] relates to LNCaP-AR cells. Nature of the data set: SRB in vitro chemosensitivity assay, LNCaP-AR. Type of data set: cell-based. The conditions noted are these: for cytotoxic effect (cytostatic / cytocidal), in words: LNCaP-AR. How it is done: (§3) The cell lines were maintained as a monolayer at 37° C. and subcultured weekly. Culture medium was composed of RPMI 1640 supplemented with 10% fetal calf serum and 1% glutamine (Mascia Brunelli s.p.a., Milan, Italy). Cells were used in the exponential growth phase in all the experiments.
(§4) Compounds were dissolved in acetone or DMSO (AITES) ([…]) and stored at −20° C. The cell culture containing acetone at the highest concentration was used as the control.
as §1, §2
(§5) FIGS. 2-11 show the cytotoxic activity of the derivative compounds of the invention on the LNCaP and LNCaP-AR cell lines. The authors examined the antitumour activity of the compounds for which the synthesis is described above, in the hormone-sensitive prostate cancer cell line LNCaP and in its derivative cell line LNCaP-AR, expressing high level of AR and with hormone refractory prostate cancer (HRPC) features. The novel compounds were tested at the increasing concentrations of […], 0.2, 2.0, and 20.0 μM. The highest dose used was chosen on the basis of the clinically achievable peak plasma concentration reported in the literature for bicalutamide (Cockshott I D. Clin Pharmacokinet. 2004; 43(13): 855-78). After 144-hr exposure time the cytotoxic effect of the molecules was calculated according to the method of Monks et al. (Monks A, Scudiero D, Skehan P, et al. Feasibility of a high-flux anticancer drug screen using a diverse panel of cultured human tumor cell lines. J Natl Cancer Inst. 1991; 83: 757-66.)

Data set [3] deals with LNCaP cells. Nature of the data set: SRB in vitro chemosensitivity assay, LNCaP. The class given is cell-based. How it is done: as §3, §4, §1, §2, §5
Data set [4] relates to DU145 cell line. The experiment in a line: SRB cytotoxicity, DU145. Type of data set: cell-based, human. To be noted: DU145 (no AR), 144 h, up to 20 μM. How it is done: (§6) FIGS. 16-25: cytotoxic effect of compounds (R)-XXIII-2, (R)-XXIII-3, (R)-XXIII-4, (R)-XXIII-5, (R)-XXIII-6, (R)-XXIII-7, (R)-XXIII-8, (R)-XXIII-9, (R)-XXIII-10, (R)-XXIV-9 on PC-3 and DU-145 cell lines at different concentration (0.02, 0.2, 2, 20 μM) after 144 h exposure. On the x-axis is reported the concentration, while on the y-axis is reported the inhibition of the net growth (% net growth).
as §1, §2

The test system of data set [5] is PC-3 cell line. The experiment in a line: SRB cytotoxicity, PC-3. The class given is cell-based, human. To be noted: PC-3 (no AR), 144 h, up to 20 μM. How it is done:
as §6, §1, §2

Setting [6] is: LNCaP-AR cells, 144 h exposure, up to 20 μM.
Setting [7] is: Homo sapiens, LNCaP, 144 h, read-out: LC50, LNCaP cells, 144 h exposure, up to 20 μM.
Where [8] appears, read: read-out: LC50, LNCaP cells, 144 h exposure, up to 20 μM.
[9] abbreviates: LNCaP cells, 144 h exposure, up to 20 μM.

Like-named read-outs stand apart in the source and are kept apart here.

Consider `N#Cc1ccc(OCC(O)(Cc2ccccc2)C(=O)Nc2ccc(C#N)c(C(F)(F)F)c2)cc1` (stereo in doubt) [(R)-XXIV-9], for which, in data set [1], the “hepato-toxicity, in words” value is “did not display toxicity”. Besides, the GI50 stood at 7.1 µM in data set [2] (Homo sapiens, LNCaP/AR, 144 h) and 6.4 µM in data set [3] (Homo sapiens, LNCaP, 144 h). Further, the values for the LC50 entry in data set [2] (setting [6]), in data set [3] (setting [7]) and in data set [3] (setting [8]) were “n.r”, 16.2 to 20 µM and 17.4 µM, respectively. For the same compound, the “cytotoxic effect (cytostatic / cytocidal), in words” value in data set [2] (144 h, up to 20 μM) was “cell killing activity”; in data set [3] (LNCaP, 144 h, up to 20 μM), “cell killing activity”. For the same compound, the “cytotoxic activity, in words” value in data set [4] was “maintain their cytostatic and cytocidal activity”; in data set [5], “maintain their cytostatic and cytocidal activity”.

On to `C[C@](O)(CS(=O)(=O)c1ccc(F)cc1)C(=O)Nc1ccc(C#N)c(C(F)(F)F)c1` [(R)-Bicalutamide, reference compound], for which the concentration for 50% growth inhibition (GI50) result in data set [2] (setting [6]) was “n.r”; in data set [3] (Homo sapiens, LNCaP cells, 144 h exposure, up to 20 μM, read-out: GI50), 1.8 µM. Besides, the LC50 result is “n.r” in data set [2] (setting [6]); “not observed” in data set [2] (LNCaP-AR cells, 144 h exposure, up to 20 μM, listed as bicalutamide); “n.r.^a” in data set [3] (setting [9]); “not observed” in data set [3] (LNCaP cells, 144 h exposure, up to 20 μM, listed as bicalutamide).

As to `CC[C@](O)(CS(=O)(=O)c1ccc(F)cc1)C(=O)Nc1ccc(C#N)c(C(F)(F)F)c1` [(R)-XXIII-2], in data set [1], the “hepato-toxicity, in words” value is “did not display toxicity”. In addition, the GI50 result in data set [2] (setting [6]) and in data set [3] (setting [9]) was “n.r” in each case. For the same compound, the LC50 entry in data set [2] (setting [6]) and in data set [3] (setting [9]) was “n.r” in each case. Also, the “cytotoxic effect (cytostatic / cytocidal), in words” value is on record as “weak cytostatic effect” in data set [2] (144 h, up to 20 μM) and “weak cytostatic effect” in data set [3] (LNCaP, 144 h, up to 20 μM). Besides, the “cytotoxic activity, in words” value in data set [4] and in data set [5] was “negligible cytotoxic activity” in each case.

For the compound `N#Cc1ccc(C[C@](O)(CS(=O)(=O)c2ccc(F)cc2)C(=O)Nc2ccc(C#N)c(C(F)(F)F)c2)cc1` [(R)-XXIII-7], the “hepato-toxicity, in words” value in data set [1] is reported as “did not display toxicity”. The GI50 is 1.8 µM in data set [2] (Homo sapiens, LNCaP/AR, 144 h) and 1.4 µM in data set [3] (Homo sapiens, LNCaP, 144 h). The 50% lethal concentration (LC50) result in data set [2] (setting [6]) was “n.r”; in data set [3] (setting [7]), 16.2 to 20 µM; in data set [3] (setting [8]), 20 µM. Besides, the “cytotoxic effect (cytostatic / cytocidal), in words” value in data set [3] (LNCaP, 144 h, up to 20 μM) was “cytocidal effect”. Besides, the “cytotoxic activity, in words” value in data set [4] and in data set [5] was “negligible cytotoxic activity” each time.

Consider `N#Cc1ccc(NC(=O)[C@](O)(Cc2cc(F)cc(F)c2)CS(=O)(=O)c2ccc(F)cc2)cc1C(F)(F)F` [(R)-XXIII-9], for which the LC50 entry in data set [1] is “not able to reach LC50 value”; in data set [2] (setting [6]), “n.r”; in data set [3] (setting [7]), 16.2 to 20 µM; in data set [3] (setting [8]), 19.7 µM. Besides, the “hepato-toxicity, in words” value in data set [1] was “Hepato-toxicity was observed”. The GI50 in data set [2] (Homo sapiens, LNCaP/AR, 144 h) amounted to 8.2 µM; in data set [3] (Homo sapiens, LNCaP, 144 h) it was 5.7 µM. The “cytotoxic effect (cytostatic / cytocidal), in words” value in data set [2] (144 h, up to 20 μM) is reported as “cell killing activity”; in data set [3] (LNCaP, 144 h, up to 20 μM), “cell killing activity”. The “cytotoxic activity, in words” value is “maintain their cytostatic and cytocidal activity reaching LC50 values” in data set [4]; “maintain their cytostatic and cytocidal activity reaching LC50 values” in data set [5].

As for `N#Cc1ccc(NC(=O)[C@](O)(Cc2cccc3ccccc23)CS(=O)(=O)c2ccc(F)cc2)cc1C(F)(F)F` [(R)-XXIII-10], the LC50 entry was “not able to reach LC50 value” in data set [1], “n.r” in data set [2] (setting [6]), 16.2 to 20 µM in data set [3] (setting [7]) and 19.7 µM in data set [3] (setting [8]). Also, in data set [1], the “hepato-toxicity, in words” value is listed as “Hepato-toxicity was observed”. The concentration for 50% growth inhibition (GI50) in data set [2] (Homo sapiens, LNCaP/AR, 144 h) amounted to 8.3 µM; in data set [3] (Homo sapiens, LNCaP, 144 h), 6.1 µM. Moreover, the “cytotoxic effect (cytostatic / cytocidal), in words” value is on record as “cell killing activity” in data set [2] (144 h, up to 20 μM) and “cell killing activity” in data set [3] (LNCaP, 144 h, up to 20 μM). The “cytotoxic activity, in words” value in data set [4] was “maintain their cytostatic and cytocidal activity reaching LC50 values”; in data set [5] it was “maintain their cytostatic and cytocidal activity reaching LC50 values”.

By GI50 is commonly meant the concentration that inhibits growth by half. A word on the LC50: it is the concentration lethal to half of the exposed cells or organisms.
